Results: ChEMBL document CHEMBL2203091, “Synthesis of novel МТ3 receptor ligands via an unusual Knoevenagel condensation” (Bioorg Med Chem Lett, 2012)

Assays:
[1] = target: T1, Ribosyldihydronicotinamide dehydrogenase [quinone] (Homo sapiens, UniProt P16083); experiment: Binding affinity to […] reductase 2 using MTT and NMeH as substrates
T1 sequence (P16083 whole entry): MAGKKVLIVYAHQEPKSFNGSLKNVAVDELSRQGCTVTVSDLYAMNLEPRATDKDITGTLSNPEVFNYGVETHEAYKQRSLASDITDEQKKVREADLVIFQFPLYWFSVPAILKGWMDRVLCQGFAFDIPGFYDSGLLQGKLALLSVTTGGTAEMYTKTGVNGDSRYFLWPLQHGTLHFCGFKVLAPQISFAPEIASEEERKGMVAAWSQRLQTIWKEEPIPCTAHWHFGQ

[2] = target: T2, Ribosyldihydronicotinamide dehydrogenase [quinone] (Homo sapiens) (UniProt P16083); experiment: Inhibition of […] reductase 2 using MTT and NMeH as substrates
T2 sequence (whole entry): T1 sequence (P16083 whole entry)

[3] = target: T2, Ribosyldihydronicotinamide dehydrogenase [quinone] (Homo sapiens); conditions: 0.5 to 50 uM
Description: Inhibition of human recombinant quinine reductase 2 expressed in Escherichia coli BL21 (DE3) using menadione and NMeH as substrates at 0.5 to 50 uM

Structure (SMILES) | IC50 [1] | Imax [2] | Imax [3]
CC(=O)Nc1ccc2c(c1)C(CC#N)C(=O)N2 (stereo not given) | 14.1 µM | 100% | –
COc1ccc2[nH]cc(CCNC(C)=O)c2c1 | – | 85.2% | 75%
CC(=O)NCCC1C(=O)Nc2ccc(NC(C)=O)cc21 (stereo not given) | 20.7 µM | 81.7% | –

Continued by falling IC50 [1], values first:

IC50 [1] | Imax [2] | Imax [3] | Structure (SMILES)
7 µM | 99.2% | – | CC(=O)Nc1ccc2c(c1)C(CC#N)C(=O)N2C (stereo not given)
0.2 µM | 36.3% | – | CC(=O)NCCC1(O)C(=O)Nc2ccc(NC(C)=O)cc21 (stereo not given)
